Test results as given in patent publication US7189524B1, “Receptor ligands and methods of modulating receptors” (Amgen, Inc., priority 2002, dated 2007).

Legend:
human adipocytes = test: Inhibition of forskolin-stimulated lipolysis of human adipocytes (glycerol release); assay type: cell-based; conditions: Adipocyte, 0.5 μM Forskolin, 16 hours, glycerol concentration, read-out: EC50 (anti-lipolysis)
TGR4b = molecular target: T1, TGR4b (Homo sapiens, UniProt Q8TDS4); test: Aequorin assay for intracellular calcium, CHO cells transfected with TGR4b; assay type: cell-based; conditions: summary of Table 1
T1 construct: expressed in transfected cells; host or cells: CHO cells, transient
T1 sequence (Q8TDS4 whole entry): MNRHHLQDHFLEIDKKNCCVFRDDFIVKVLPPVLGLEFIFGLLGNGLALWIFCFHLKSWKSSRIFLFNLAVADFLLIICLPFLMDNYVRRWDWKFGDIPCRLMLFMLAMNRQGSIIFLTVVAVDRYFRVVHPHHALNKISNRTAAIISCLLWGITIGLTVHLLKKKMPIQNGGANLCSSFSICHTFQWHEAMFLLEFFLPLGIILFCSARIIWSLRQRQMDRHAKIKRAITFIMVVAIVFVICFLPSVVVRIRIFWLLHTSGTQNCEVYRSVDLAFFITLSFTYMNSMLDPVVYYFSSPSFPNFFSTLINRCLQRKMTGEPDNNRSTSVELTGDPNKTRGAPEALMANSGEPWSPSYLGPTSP
Experimental: (§1) Aequorin catalyses the oxidation of coelenterazine, but only in the presence of Ca^2+ ions and thus can be used as an indicator of intracellular calcium levels. Briefly, the assays were performed using the following methodology.
(§2) CHO cells were transiently transfected with expression plasmids encoding TGR4b or TGR183 together with a plasmid encoding mitochondria-targeting apoaequorin. The plasmids were co-transfected with chimeric G protein Gαqi9, which has the C-terminal 9 amino acids from the Gαq protein replaced with the C-terminal 9 amino acids form the Gαi protein. Cells were harvested 24 hr later and loaded with coelenterazine for 2 hr at 37 C. Aequorin assay was performed on MicroLumat 96 luminometer (Perkin Elmer).

TGR183 = TGR183 (Homo sapiens, UniProt Q9BXC0); conditions: concentration of 50 μM, FIG. 3
Sequence of TGR183 (Q9BXC0 whole entry): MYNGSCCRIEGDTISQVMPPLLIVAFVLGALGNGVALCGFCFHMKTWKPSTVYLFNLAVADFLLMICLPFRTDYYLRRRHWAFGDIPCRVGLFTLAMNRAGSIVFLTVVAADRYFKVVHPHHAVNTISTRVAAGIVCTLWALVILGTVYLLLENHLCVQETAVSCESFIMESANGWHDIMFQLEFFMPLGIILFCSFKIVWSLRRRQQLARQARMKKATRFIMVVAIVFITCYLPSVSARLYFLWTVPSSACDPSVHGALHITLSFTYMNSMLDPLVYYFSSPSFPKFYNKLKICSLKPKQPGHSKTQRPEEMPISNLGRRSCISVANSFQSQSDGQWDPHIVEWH
Experimental: as §1, §2

EC50 (human adipocytes) [nM] | SMILES | activity on TGR4b in words (binding and activity assays) (TGR4b) | TGR183-mediated increase in intracellular calcium (TGR183)
6500 | O=C(O)c1cnccn1 [2-pyrazinecarboxylic acid] | also active in binding and activity assays | –
770 | Cl.O=C(O)Cc1cccnc1 [3-pyridineacetic acid HCl] | also exhibits activity | –
– | O=C(O)c1cncc(F)c1 [5-fluoro nicotinic acid] | much lower potency | –
– | NC(=O)c1cccnc1 [Nicotinamide] | completely inactive | –
2800 | O=C(O)c1ccnnc1 [Pyridazine 4-carboxylic acid] | also active in binding and activity assays | –
150 | Cl.O=C(Cl)c1cccnc1 [nicotinoyl chloride HCl] | agonist and binding activity similar to that of nicotinic acid | –

SMILES | EC50 (human adipocytes) [nM] | activity on TGR4b in words (binding and activity assays) (TGR4b) | TGR183-mediated increase in intracellular calcium (TGR183)
Cc1cnc(C(=O)O)c[n+]1[O-] | 6000 | – | –
O=C(O)c1cccnc1 [nicotinic acid, 3-pyridinecarboxylic acid] | 62 | – | stimulated a TGR183-mediated increase in intracellular calcium
